# Results: US20260209777A1, “TARGETING GLYCOSYLPHOSPHATIDYLINOSITOL (GPI) PATHWAY PROTEINS TO TREAT OVARIAN CANCER” (UNIVERSITY OF MASSACHUSETTS, priority 2023, published 2026)
# Tests used:
# CD24 on normal B cells = assay: CD24 flow cytometry analysis in primary B cells; assay type: cell-based, human; details: 20 μM bestatin or 10 μM tosedostat vs DMSO (FIG. 9A)
# Method: Flow Cytometry Analysis: For cell surface protein staining, 1×10^5-1×10^6 cells were first incubated with Fc receptor blocking solution, Human TruStain FcX™ (BioLegend, Cat #422301) for 10 minutes at room temperature. Cells were washed once in FACS buffer (1×PBS, 1.0% bovine serum albumin (BSA) (Sigma) and 0.2% sodium azide (Sigma), and then incubated with antibodies (given below) for 30 minutes at 4° C. in the dark. Cells were also stained with 7-AAD (Biolegend, Cat #420404) for dead cell exclusion, and flow cytometry analysis was performed using a Bio-Rad ZE5 Cell Analyzer. Following antibodies used in this study (all antibodies were used at 1:50 dilution unless otherwise noted): APC anti-human CD24 (BioLegend, Cat #311118, clone ML5), PE anti-human CD24 (eBioscience, Cat #12-0247-42, clone SN3), APC anti-human CD47 (BioLegend, Cat #323124, clone CC2C6), APC anti-human § 2-microglobulin (BioLegend, Cat #395711, clone A17082A), PE anti-human HLA-A2 (MHC-class I) (BioLegend, Cat #343305, clone BB7.2), APC anti-human CD11b (BioLegend, Cat #982604, clone ICRF44), APC anti-mouse F4/80 antibody (BioLegend, Cat #123116, clone BM8), APC-streptavidin (Thermo Fisher Scientific, Cat #SA1005, 1:100 dilution), PE anti-Calreticulin (Invitrogen, Catalog #MA5-15382, 1:200 dilution). […]
# normal B cells = assay: In vitro phagocytosis assay of normal B cells by PBMC-derived M2 macrophages; assay type: cell-based, human; details: for phagocytosis of B cells: bestatin 20 μM, tosedostat 10 μM vs DMSO, anti-CD24 antibody (clone SN3) vs IgG (FIG. 9B); for selectivity, CD24+ ovarian cancer cells relative to normal CD24+ B cells: comparison of FIG. 9B and 9C
# Excerpt: Macrophage Generation and Stimulation: Primary human donor-derived macrophages were generated as described previously (Martinez, Curr Protocol Immunol 2012, Chapter 14:14.28.1-14.28.23). In brief, Leukopaks from anonymous donors were obtained from the Rhode Island Blood (Providence, RI) and peripheral blood […] (PBMCs) were isolated by density gradients centrifugation using Ficoll Paque Plus (Sigma-Aldrich, Cat #17-1440-02) followed by RBC lysis using RBC lysis buffer (eBioscience, Cat #00-4333-57). For monocyte isolation, PBMCs were incubated in Monocyte Attachment Medium (Sigma-Aldrich, Cat #C-28051) for 1 hour at 37° C. and 5% CO2 and then washed three times in Iscove's Modified Dulbecco's Medium (IMDM) (Gibco, Cat #12440053) to remove non-adherent cells. The remaining monocytes were detached and seeded in 96-well plates and cultured at 37° C. and 5% CO2 in IMDM supplemented with 10% FBS (Atlanta Biologicals, Cat #S11550) and 20 ng/ml recombinant human M-CSF (Peprotech, Cat #AF-300-25). After 4 days monocytes were then treated with 20 ng/ml recombinant human IL-4 (Peprotech, Cat #200-04) and 10 ng/mL recombinant human IL-10 (PeproTech, Cat #200-10) for another 3-4 days to obtain M2 polarized macrophages. Macrophage differentiation was confirmed morphologically using microscopy. M2-macrophage polarization was confirmed by immunophenotyping of the M2 marker CD206 using PE-conjugated anti-human anti-CD206 antibody (BioLegend, Cat #321106, clone 15-2, 1:100 dilution). Primary B-cell Isolation and Culture: Pan B cells were isolated by negative selection from PBMCs isolated from Leukopaks (as described above) using a MojoSort Human Pan B Cell Isolation Kit (BioLegend, Cat #480081) according to the manufacturer's instructions. The purity of B cells was confirmed to be >95% by flow cytometry using a FITC anti-human CD19 antibody (BioLegend, Cat #302205, clone HIB19). B cells were cultured in RPMI 1640 medium supplemented with 5% human serum (Sigma-Aldrich, Cat #H6914), MEM non-essential amino acids solution (Gibco, Cat #1140050), and recombinant human IL-2 (50 ng/ml) (PeproTech, Cat #200-02) and IL-4 (10 ng/ml) (PeproTech, Cat #200-04). In vitro Phagocytosis Assays: To facilitate the quantification of phagocytic events, we adapted a microscopy-based fluorescence phagocytosis […] al., J Immunol Methods 2009, 342(1-2):71-7; Lindner et al., Biotechniques 2020, 68(5):245-250) for use with a Celigo imaging cytometer. […] Phagocytic events were quantified by counting the number of red fluorescent (pHrodo+) cells per well using a Celigo Imaging Cytometer (Nexcelom). […]
SMILES,CD24 levels on B cells (MFI) (CD24 on normal B cells),phagocytosis of B cells (normal B cells),"selectivity, CD24+ ovarian cancer cells relative to normal CD24+ B cells (normal B cells)"
CC(C)C[C@H](NC(=O)[C@@H](O)[C@H](N)Cc1ccccc1)C(=O)O [bestatin],not diminished,did not undergo phagocytosis,selectivity toward CD24+ ovarian cancer cells relative to normal CD24+ B cells
CC(C)C[C@@H](C(=O)N[C@H](C(=O)OC1CCCC1)c1ccccc1)[C@H](O)C(=O)NO [tosedostat],not diminished,did not undergo phagocytosis,selectivity toward CD24+ ovarian cancer cells relative to normal CD24+ B cells
